In article PMC5218480 (PLoS ONE, 2017):

Test system: MV-4-11 cells
Test: Gene expression microarray analysis (Affymetrix PrimeView) and GSEA
Format: cell-based, human
Set-up: RFU PODN (11730768_x_at) / Fold change /veh PODN (11730768_x_at) / RFU LINC00158 (11744669_a_at) / Fold change /veh LINC00158 (11744669_a_at) / RFU DUSP10 (11751237_a_at) / Fold change /veh DUSP10 (11751237_a_at) / RFU ID3 (11757404_x_at) / Fold change /veh ID3 (11757404_x_at) / RFU PLEKHG5 (11737974_s_at) / Fold change /veh PLEKHG5 (11737974_s_at) / RFU LRRC4B (11730491_at) / Fold change /veh LRRC4B (11730491_at) / RFU GIMAP4 (11747438_a_at) / Fold change /veh GIMAP4 (11747438_a_at) / RFU KRT8 (11758183_x_at) / Fold change /veh KRT8 (11758183_x_at) / RFU CNN1 (11734310_a_at) / Fold change /veh CNN1 (11734310_a_at) / RFU VPS37D (11726825_at) / Fold change /veh VPS37D (11726825_at) / RFU C10orf10 (11716522_x_at) / Fold change /veh C10orf10 (11716522_x_at) / RFU KIR2DL2 /// KIR2DL4 /// KIR2DL5A /// KIR2DL5B /// KIR2DS1 /// KIR2DS2 /// KIR2DS3 /// KIR2DS4 /// KIR3DL3 /// KIR3DL3 /// KIR3DS1 (11738374_at) / Fold change /veh KIR2DL2 /// KIR2DL4 /// KIR2DL5A /// KIR2DL5B /// KIR2DS1 /// KIR2DS2 /// KIR2DS3 /// KIR2DS4 /// KIR3DL3 /// KIR3DL3 /// KIR3DS1 (11738374_at) / RFU C1QL1 (11718748_at) / Fold change /veh C1QL1 (11718748_at) / RFU TMPRSS4 (11747572_a_at) / Fold change /veh TMPRSS4 (11747572_a_at) / RFU HAMP (11756126_x_at) / Fold change /veh HAMP (11756126_x_at) / RFU RNFT2 (11725882_a_at) / Fold change /veh RNFT2 (11725882_a_at) / RFU NR4A2 (11747474_a_at) / Fold change /veh NR4A2 (11747474_a_at) / RFU ABCC12 (11746883_a_at) / Fold change /veh ABCC12 (11746883_a_at) / RFU TMEM136 (11760407_x_at) / Fold change /veh TMEM136 (11760407_x_at) / RFU CLDN22 /// WWC2 (11732394_at) / Fold change /veh CLDN22 /// WWC2 (11732394_at) / RFU HLA-DPB1 (11760878_x_at) / Fold change /veh HLA-DPB1 (11760878_x_at) / RFU SPINT1 (11716480_a_at) / Fold change /veh SPINT1 (11716480_a_at) / RFU GAP43 (11754022_s_at) / Fold change /veh GAP43 (11754022_s_at) / RFU A4GNT (11735810_at) / Fold change /veh A4GNT (11735810_at) / RFU PRB3 (11715151_x_at) / Fold change /veh PRB3 (11715151_x_at) / RFU TUBB4B (11761932_at) / Fold change /veh TUBB4B (11761932_at) / RFU CAPN14 (11732068_a_at) / Fold change /veh CAPN14 (11732068_a_at) / RFU TMCC2 (11721928_a_at) / Fold change /veh TMCC2 (11721928_a_at) / RFU IRGQ (11745062_a_at) / Fold change /veh IRGQ (11745062_a_at) / RFU FAM174B (11720279_a_at) / Fold change /veh FAM174B (11720279_a_at) / RFU TMPRSS4 (11748680_a_at) / Fold change /veh TMPRSS4 (11748680_a_at) / RFU FAM212B (11763350_a_at) / Fold change /veh FAM212B (11763350_a_at) / RFU PLEKHG5 (11743358_a_at) / Fold change /veh PLEKHG5 (11743358_a_at) / RFU ZSCAN30 (11745921_a_at) / Fold change /veh ZSCAN30 (11745921_a_at) / RFU CMKLR1 (11741424_a_at) / Fold change /veh CMKLR1 (11741424_a_at) / RFU LOC101060620 /// MAPK8IP1 (11723275_at) / Fold change /veh LOC101060620 /// MAPK8IP1 (11723275_at) / RFU SPTSSB (11747773_x_at) / Fold change /veh SPTSSB (11747773_x_at) / RFU PRSS12 (11739890_at) / Fold change /veh PRSS12 (11739890_at) / RFU BIN1 (11741810_x_at) / Fold change /veh BIN1 (11741810_x_at) / RFU WNT11 (11732464_a_at) / Fold change /veh WNT11 (11732464_a_at) / RFU C10orf10 (11716521_a_at) / Fold change /veh C10orf10 (11716521_a_at) / RFU C5orf56 (11738089_at) / Fold change /veh C5orf56 (11738089_at) / RFU CYB561 (11721691_x_at) / Fold change /veh CYB561 (11721691_x_at) / RFU ANKRD19P (11752326_a_at) / Fold change /veh ANKRD19P (11752326_a_at) / RFU OR2T12 /// OR2T33 /// OR2T8 (11738714_s_at) / Fold change /veh OR2T12 /// OR2T33 /// OR2T8 (11738714_s_at) / RFU VCAN (11748164_a_at) / Fold change /veh VCAN (11748164_a_at) / RFU JSRP1 (11732532_at) / Fold change /veh JSRP1 (11732532_at) / RFU KRTAP10-11 (11738290_x_at) / Fold change /veh KRTAP10-11 (11738290_x_at) / RFU MYO3A (11730013_a_at) / Fold change /veh MYO3A (11730013_a_at) / RFU EBF3 (11725865_a_at) / Fold change /veh EBF3 (11725865_a_at) / RFU CAMK2N1 (11719241_x_at) / Fold change /veh CAMK2N1 (11719241_x_at) / RFU C5orf56 (11738088_a_at) / Fold change /veh C5orf56 (11738088_a_at) / RFU OLFML3 (11715873_a_at) / Fold change /veh OLFML3 (11715873_a_at) / RFU LOC100653217 /// NTM (11731650_a_at) / Fold change /veh LOC100653217 /// NTM (11731650_a_at) / RFU MAPK11 (11762145_a_at) / Fold change /veh MAPK11 (11762145_a_at) / RFU FIZ1 (11724087_x_at) / Fold change /veh FIZ1 (11724087_x_at) / RFU OASL (11726364_x_at) / Fold change /veh OASL (11726364_x_at) / RFU SOX15 (11748057_x_at) / Fold change /veh SOX15 (11748057_x_at) / RFU CD79A (11719716_a_at) / Fold change /veh CD79A (11719716_a_at) / RFU HIST1H1D (11736915_at) / Fold change /veh HIST1H1D (11736915_at) / RFU CASKIN2 (11723855_a_at) / Fold change /veh CASKIN2 (11723855_a_at) / RFU LOC730098 (11760151_x_at) / Fold change /veh LOC730098 (11760151_x_at) / RFU OR4N2 (11742367_at) / Fold change /veh OR4N2 (11742367_at) / RFU PRRT2 (11749266_a_at) / Fold change /veh PRRT2 (11749266_a_at) / RFU SNX32 (11753110_a_at) / Fold change /veh SNX32 (11753110_a_at) / RFU CDHR5 (11726645_a_at) / Fold change /veh CDHR5 (11726645_a_at) / RFU RCAN1 (11760418_a_at) / Fold change /veh RCAN1 (11760418_a_at) / RFU FAM167A (11723789_a_at) / Fold change /veh FAM167A (11723789_a_at) / RFU FAM26E (11764081_at) / Fold change /veh FAM26E (11764081_at) / RFU ISYNA1 (11749810_s_at) / Fold change /veh ISYNA1 (11749810_s_at) / RFU ACY1 (11761880_at) / Fold change /veh ACY1 (11761880_at) / RFU 11764098_at / Fold change /veh 11764098_at / RFU SAMD14 (11745864_x_at) / Fold change /veh SAMD14 (11745864_x_at) / RFU NPB (11741838_a_at) / Fold change /veh NPB (11741838_a_at) / RFU TMPRSS6 (11731388_a_at) / Fold change /veh TMPRSS6 (11731388_a_at) / RFU KRTAP10-2 (11738614_at) / Fold change /veh KRTAP10-2 (11738614_at) / RFU ARHGAP8 /// PRR5-ARHGAP8 (11727945_x_at) / Fold change /veh ARHGAP8 /// PRR5-ARHGAP8 (11727945_x_at) / RFU KRTAP5-7 /// NADSYN1 (11734609_at) / Fold change /veh KRTAP5-7 /// NADSYN1 (11734609_at) / RFU RASL12 (11751679_a_at) / Fold change /veh RASL12 (11751679_a_at) / RFU CDKN2B (11736163_a_at) / Fold change /veh CDKN2B (11736163_a_at) / RFU PRF1 (11729649_at) / Fold change /veh PRF1 (11729649_at) / RFU, ZNF638 /// ZNF638-IT1 / Fold change vs veh, ZNF638 /// ZNF638-IT1 / RFU, PANK3 / Fold change vs veh, PANK3 / RFU, SH3YL1 / Fold change vs veh, SH3YL1 / RFU, ZEB2 / Fold change vs veh, ZEB2 / RFU, NRIP1 / Fold change vs veh, NRIP1 / RFU, PTTG1IP / Fold change vs veh, PTTG1IP / RFU, CAPN2 / Fold change vs veh, CAPN2 / RFU, MED14 / Fold change vs veh, MED14 / RFU, SNORA58 / Fold change vs veh, SNORA58 / RFU, C1orf63 / Fold change vs veh, C1orf63 / RFU, LRRFIP1 / Fold change vs veh, LRRFIP1 / RFU, NDUFAF7 / Fold change vs veh, NDUFAF7 / RFU, SLC12A2 / Fold change vs veh, SLC12A2 / RFU, IBTK / Fold change vs veh, IBTK / RFU, ESF1 / Fold change vs veh, ESF1 / Fold change vs veh, TMEM50B / RFU, TAOK1 / Fold change vs veh, TAOK1 / RFU, ACBD3 / Fold change vs veh, ACBD3 / RFU, TMA16 / Fold change vs veh, TMA16 / RFU, RWDD3 / Fold change vs veh, RWDD3 / RFU, BCAT1 / Fold change vs veh, BCAT1 / RFU, EDEM3 / Fold change vs veh, EDEM3 / RFU, TMEM33 / Fold change vs veh, TMEM33 / RFU, WDR75 / Fold change vs veh, WDR75 / RFU, AHCTF1 / Fold change vs veh, AHCTF1 / RFU, TFRC / Fold change vs veh, TFRC / RFU, ZDHHC17 / Fold change vs veh, ZDHHC17 / RFU, NOM1 / Fold change vs veh, NOM1 / RFU, ARL8B / Fold change vs veh, ARL8B / RFU, ZBTB11 / Fold change vs veh, ZBTB11 / RFU, TAMM41 / Fold change vs veh, TAMM41 / RFU, KIAA1704 /// LOC100996395 / Fold change vs veh, KIAA1704 /// LOC100996395 / RFU, ING1 / Fold change vs veh, ING1 / RFU, TRMT61B / Fold change vs veh, TRMT61B / RFU, FUBP3 / Fold change vs veh, FUBP3 / RFU, TP53 / Fold change vs veh, TP53 / RFU, TNKS2 / Fold change vs veh, TNKS2 / RFU, ZFP14 / Fold change vs veh, ZFP14 / RFU, ACTR2 / Fold change vs veh, ACTR2 / RFU, PPP3R1 / Fold change vs veh, PPP3R1 / RFU, PIK3R1 / Fold change vs veh, PIK3R1 / RFU, HNRNPA1 / Fold change vs veh, HNRNPA1 / RFU, RNF170 / Fold change vs veh, RNF170 / RFU, ZNF28 / Fold change vs veh, ZNF28 / RFU, RNGTT / Fold change vs veh, RNGTT / RFU, OGT / Fold change vs veh, OGT / RFU, BRD1 / Fold change vs veh, BRD1 / RFU, MARS / Fold change vs veh, MARS / RFU, ZNF655 / Fold change vs veh, ZNF655 / RFU, FAHD1 / Fold change vs veh, FAHD1 / RFU, BDP1 / Fold change vs veh, BDP1 / RFU, LRRCC1 / Fold change vs veh, LRRCC1 / RFU, ARID1A / Fold change vs veh, ARID1A / RFU, ZNF146 / Fold change vs veh, ZNF146 / RFU, ZNF330 / Fold change vs veh, ZNF330 / RFU, GPN3 / Fold change vs veh, GPN3 / RFU, C9orf123 / Fold change vs veh, C9orf123 / RFU, N4BP2L2 / Fold change vs veh, N4BP2L2 / RFU, ARFIP1 / Fold change vs veh, ARFIP1 / RFU, FAM179B / Fold change vs veh, FAM179B / RFU, BCL10 / Fold change vs veh, BCL10 / RFU, UHRF1BP1L / Fold change vs veh, UHRF1BP1L / RFU, BET1 / Fold change vs veh, BET1 / RFU, CNOT2 / Fold change vs veh, CNOT2 / RFU, ZNF268 / Fold change vs veh, ZNF268 / Fold change vs veh, ZNF507 / RFU, DGCR2 / Fold change vs veh, DGCR2 / RFU, WDSUB1 / Fold change vs veh, WDSUB1 / Fold change vs veh, HSP90B1 /// MIR3652 / RFU, ADSS / Fold change vs veh, ADSS / RFU, GK / Fold change vs veh, GK / RFU, ZNF148 / Fold change vs veh, ZNF148 / RFU, TAF9 / Fold change vs veh, TAF9 / RFU, SLC1A5 / Fold change vs veh, SLC1A5 / RFU, SLMO2 / Fold change vs veh, SLMO2 / RFU, ABCC4 / Fold change vs veh, ABCC4 / RFU, LOC101060439 /// RAP1B / Fold change vs veh, LOC101060439 /// RAP1B / RFU, RFX7 / Fold change vs veh, RFX7 / RFU, GTPBP10 / Fold change vs veh, GTPBP10 / RFU, CNEP1R1 / Fold change vs veh, CNEP1R1 / RFU, BIVM-ERCC5 /// ERCC5 / Fold change vs veh, BIVM-ERCC5 /// ERCC5 / RFU, ILF3 / Fold change vs veh, ILF3 / RFU 11762660_at / Fold change /veh 11762660_at / RFU VCAN (11757783_s_at) / Fold change /veh VCAN (11757783_s_at) / RFU DDX43 (11728927_at) / Fold change /veh DDX43 (11728927_at) / RFU KRT8 (11758188_x_at) / Fold change /veh KRT8 (11758188_x_at) / RFU NKD1 (11759106_at) / Fold change /veh NKD1 (11759106_at) / RFU SRD5A1 (11742802_a_at) / Fold change /veh SRD5A1 (11742802_a_at) / RFU TPSAB1 /// TPSB2 (11721975_s_at) / Fold change /veh TPSAB1 /// TPSB2 (11721975_s_at) / RFU GSTM3 (11746129_a_at) / Fold change /veh GSTM3 (11746129_a_at) / RFU IL23R (11737362_x_at) / Fold change /veh IL23R (11737362_x_at) / RFU TMEM51 (11727254_a_at) / Fold change /veh TMEM51 (11727254_a_at) / RFU PIWIL2 (11732686_x_at) / Fold change /veh PIWIL2 (11732686_x_at) / RFU ORM1 (11744905_x_at) / Fold change /veh ORM1 (11744905_x_at) / RFU CCDC152 (11743942_at) / Fold change /veh CCDC152 (11743942_at) / RFU ECM1 (11717891_a_at) / Fold change /veh ECM1 (11717891_a_at) / RFU IL23R (11748794_a_at) / Fold change /veh IL23R (11748794_a_at) / RFU TNFAIP8L3 (11732012_x_at) / Fold change /veh TNFAIP8L3 (11732012_x_at) / RFU MBOAT4 (11741988_at) / Fold change /veh MBOAT4 (11741988_at) / RFU 11764193_at / Fold change /veh 11764193_at / RFU TMEM53 (11763286_at) / Fold change /veh TMEM53 (11763286_at) / RFU MAGEB2 (11727129_at) / Fold change /veh MAGEB2 (11727129_at) / RFU TMEM200A (11744735_a_at) / Fold change /veh TMEM200A (11744735_a_at) / RFU CCDC152 (11751479_a_at) / Fold change /veh CCDC152 (11751479_a_at) / RFU FAM211A (11726209_a_at) / Fold change /veh FAM211A (11726209_a_at) / RFU RGS16 (11746705_a_at) / Fold change /veh RGS16 (11746705_a_at) / RFU VCAN (11755009_s_at) / Fold change /veh VCAN (11755009_s_at) / RFU RHOB (11743442_s_at) / Fold change /veh RHOB (11743442_s_at) / RFU RGS16 (11720943_a_at) / Fold change /veh RGS16 (11720943_a_at) / RFU RGS16 (11720944_at) / Fold change /veh RGS16 (11720944_at) / RFU, VPS4B / Fold change vs veh, VPS4B / RFU, CREB1 / Fold change vs veh, CREB1 / RFU, DNAJC13 / Fold change vs veh, DNAJC13 / RFU, GNAQ / Fold change vs veh, GNAQ / RFU, CDK5R1 / Fold change vs veh, CDK5R1 / RFU, ZRANB3 / Fold change vs veh, ZRANB3 / RFU, CUL4A / Fold change vs veh, CUL4A / RFU, CCNY / Fold change vs veh, CCNY / RFU, UFL1 / Fold change vs veh, UFL1 / RFU, COG3 / Fold change vs veh, COG3 / RFU, DIAPH2 / Fold change vs veh, DIAPH2 / RFU, SKA2 / Fold change vs veh, SKA2 / RFU, AFF3 / Fold change vs veh, AFF3 / RFU, LMF1 / Fold change vs veh, LMF1 / RFU, IPO11 / Fold change vs veh, IPO11 / RFU, DFFB / Fold change vs veh, DFFB / RFU, FOXP1 / Fold change vs veh, FOXP1 / RFU, CARD8 / Fold change vs veh, CARD8 / RFU, STRN3 / Fold change vs veh, STRN3 / RFU, ADK / Fold change vs veh, ADK / RFU, RASSF2 / Fold change vs veh, RASSF2 / RFU, WIPF1 / Fold change vs veh, WIPF1 / RFU, LARP1B / Fold change vs veh, LARP1B / RFU, RASA1 / Fold change vs veh, RASA1 / RFU, RB1 / Fold change vs veh, RB1 / RFU, PPFIA1 / Fold change vs veh, PPFIA1 / RFU, MAT2A / Fold change vs veh, MAT2A / RFU, CCT5 / Fold change vs veh, CCT5 / RFU, WDR92 / Fold change vs veh, WDR92 / RFU, CUX1 / Fold change vs veh, CUX1 / RFU, TTC7A / Fold change vs veh, TTC7A / RFU, TMEM135 / Fold change vs veh, TMEM135 / RFU, DEPTOR / Fold change vs veh, DEPTOR / RFU, CPM / Fold change vs veh, CPM / RFU, DNAJB6 / Fold change vs veh, DNAJB6 / RFU, CACNA2D3 / Fold change vs veh, CACNA2D3 / RFU, DTX4 / Fold change vs veh, DTX4 / RFU, TFCP2 / Fold change vs veh, TFCP2 / RFU, GMCL1 /// GMCL1P1 / Fold change vs veh, GMCL1 /// GMCL1P1 / RFU, AEBP2 / Fold change vs veh, AEBP2 / RFU, SNHG1 /// SNORD22 /// SNORD25 /// SNORD26 /// SNORD27 /// SNORD28 /// SNORD29 /// SNORD31 / Fold change vs veh, SNHG1 /// SNORD22 /// SNORD25 /// SNORD26 /// SNORD27 /// SNORD28 /// SNORD29 /// SNORD31 / Fold change (Aza/veh), C12orf56 (ProbeSet 11735607_a_at) / Fold change (ACY-1035/veh), C12orf56 (ProbeSet 11735607_a_at) / Fold change (Aza/veh), FGFR1OP (ProbeSet 11751329_s_at) / Fold change (ACY-1035/veh), FGFR1OP (ProbeSet 11751329_s_at) / Fold change (Aza/veh), VPS36 (ProbeSet 11739960_a_at) / Fold change (ACY-1035/veh), VPS36 (ProbeSet 11739960_a_at) / RFU SYPL1 (11715823_x_at) / Fold change /veh SYPL1 (11715823_x_at) / RFU IGFBP7 (11715501_s_at) / Fold change /veh IGFBP7 (11715501_s_at) / RFU REEP3 (11722064_at) / Fold change /veh REEP3 (11722064_at) / RFU IGLL1 (11728026_x_at) / Fold change /veh IGLL1 (11728026_x_at): dose or concentration left out as unconfirmed
Settings: MV-4-11 cells, 48 hours

For Nc1ncn([C@@H]2O[C@H](CO)[C@@H](O)[C@H]2O)c(=O)n1 [azacitidine], the “RFU GIMAP4 (11747438_a_at)” value was 6.50 RFU.
